In paper PMC4502315, “High Potency of a Novel Resveratrol Derivative, 3,3′,4,4′-Tetrahydroxy-trans-stilbene, against Ovarian Cancer Is Associated with an Oxidative Stress-Mediated Imbalance between DNA Damage Accumulation and Repair” (Oxidative Medicine and Cellular Longevity, 2015):
Like-named read-outs stand apart in the source and are kept apart here.

Key:
HOSE cells [1] = test: Oxidative DNA damage (8-OH-dG immunoassay), HOSE cells; type: cell-based, human; conditions: 24 h, percentage of control cells
Protocol: (§1) Oxidative DNA damage was assessed by measuring the 8-OH-dG concentration with a competitive immunoassay (Cell Biolabs Inc.), as per manufacturer's instructions. The efficiency of 8-OH-dG repair was estimated after cell recovery for 24 h in standard growth medium. In order to examine the activity of DNA glycosylase I, reverse transcription PCR was performed. RNA extraction was carried out using the RNA Bee (Tel-Test, Friendswood, Texas, USA) and purified according to the manufacturer's protocol. One microgram of RNA was reverse transcribed into cDNA with random hexamer primers, and cDNA was subjected to PCR. The profile of the replication cycles was denaturation at 94°C for 50 s, annealing at 58°C for 50 s, and polymerization at 72°C for 1 min. In each reaction, the expression of glyceraldehyde-3-phosphate dehydrogenase (GAPDH) served as the internal control. The primers used for PCR were as follows: hOGG1 forward, 5′-[…]-3′; hOGG1 reverse, 5′-TAGCCCGCCCTGTTCTTC-3′ designed to amplify a 551-bp region; GAPDH forward, 5′-CCATGGAGAAGGCTGGGG-3′; and GAPDH reverse 5′-[…]-3′ designed to amplify a 194-bp region (total number of cycles: 28). The PCR products were separated on 3% agarose gels stained with ethidium bromide and then visualized.

A2780 cells [2] = test: Oxidative DNA damage (8-OH-dG immunoassay), A2780; type: cell-based, human; conditions: 24 h, 10, 50, 100 μM tested
Protocol: as §1

HPMCs = test: ROS production (H2DCFDA), HPMCs; type: cell-based, human; conditions: 24 h, percentage of control cells
Protocol: (§2) ROS production was assessed in cells probed with a fluorescent dye, 2′,7′-dichlorodihydrofluorescein diacetate (H2DCFDA; 5 μM) (Molecular Probes, Eugene, USA) for 45 min at 37°C. Fluorescence intensity in cell lysates was monitored in a Victor2 spectrofluorometer with excitation at 485 nm and emission at 535 nm.

A2780 = test: MTT viability assay, A2780; type: cell-based; conditions: Homo sapiens, 24 h
Protocol: (§3) Cell viability was assessed with the MTT test and with lactate dehydrogenase (LDH) release assay. As per the MTT method, normal and cancer cells were seeded into 96-well plates at high density and allowed to attach overnight. Then they were incubated in a medium containing 1.25 mg/mL of the MTT salt [3-(4,5-dimethylthiazol-2-yl)-2,5-diphenyltetrazolium bromide] for 24 h at 37°C. The generated formazan was solubilized with 20% sodium dodecyl sulphate and 50% N,N-dimethylformamide. Absorbance of the converted dye was recorded at 595 nm with a reference wavelength of 690 nm.
(§4) In order to examine the effect of 3,3′,4,4′-THS on the viability of ovarian cancer cells and to compare its activity with RVT, subconfluent cultures of A2780, OVCAR-3, and SKOV-3 cells were subjected to a wide range of stilbene concentrations (0–500 μM) for 24 h; then MTT and LDH release assays were performed.

p38 MAPK = p38 MAPK activation (FACE ELISA), A2780; type: cell-based, human; conditions: 24 h, 10, 50, 100 μM tested
Protocol: Activation of p38 MAPK was examined using the Fast Activated Cell-Based ELISA (FACE) p38 kit (Active Motif) according to the manufacturer's instructions. In brief, cells were fixed with 4% formaldehyde and incubated with a primary antibody that recognizes either phosphorylated p38 or total p38 overnight at 4°C. Then the cells were washed and incubated with a secondary HRP-conjugated antibody for 1 h at room temperature. The color reaction that developed was read using a spectrofluorometer at 450 nm wavelength.
The results were expressed as a ratio of phosphorylated to total p38 activity.

A2780 cells [3] = test: ROS production (H2DCFDA), A2780; type: cell-based, human; conditions: 24 h, 10, 50, 100 μM tested
Protocol: as §2

OVCAR-3 cells [4] = test: ROS production (H2DCFDA), OVCAR-3; type: cell-based, human; conditions: 24 h, 10, 50, 100 μM tested
Protocol: as §2

[5] = system: ovarian cancer cells (A2780, OVCAR-3, SKOV-3); test: Efficiency of 8-OH-dG repair after 24-h recovery, ovarian cancer cells; type: cell-based, human; conditions: all three cancer cell lines; 24-h stilbene exposure then 24-h recovery
Protocol: as §1
The cancer cells were treated with RVT and 3,3′,4,4′-THS to cause DNA injury; then they were washed and kept in standard growth medium to recover.

OVCAR-3 cells [6] = test: SA-β-Gal activity (senescence), OVCAR-3; type: cell-based, human; conditions: 24 h, 10, 50, 100 μM tested
Protocol: The activity of SA-β-Gal in the cell extracts was quantified by measuring the rate of conversion of 4-methylumbelliferyl-β-D-galactopyranoside to 4-methylumbelliferone, as described in [19]. In order to visualize expression of the enzyme in the cancer cell cytoplasm, cytochemical staining for SA-β-Gal was performed according to Dimri et al..

A2780 cells [7] = test: Cell proliferation (CFDA SE), A2780; type: cell-based, human; conditions: low-density cultures, 24 h, 10, 50, 100 μM tested
Protocol: Cell proliferative potential was determined using Cell Proliferation Kit I (PromoKine, Heidelberg, Germany) according to the manufacturer's instructions. In brief, cells were probed for 15 min with 5-(and 6)-carboxyfluorescein diacetate, a succinimidyl ester (CFDA SE; 2 μM) which diffuses into cells, covalently binds to proteins, and becomes fluorescent upon its hydrolysis by intracellular esterases. The fluorescence emitted by the cells (the dye is inherited by the daughter cells through successive divisions) was recorded using a Victor2 spectrofluorometer (Perkin-Elmer, Turku, Finland) with excitation at 435 nm and emission at 535 nm.

catalase (CAT) = test: CAT activity, OVCAR-3; type: cell-based, human; conditions: 24 h, 10, 50, 100 μM tested
Protocol: Total activity of superoxide dismutase (SOD) was measured in cell lysates with a commercially available kit (R&D Systems Europe, Abingdon, UK), while the activity of catalase (CAT) was estimated by using the OxiSelect Catalase Activity Assay Kit (Cell Biolabs Inc., San Diego, CA, USA). Both assays were performed according to the manufacturer's instructions.

OVCAR-3 = test: MTT viability assay, OVCAR-3; type: cell-based; conditions: Homo sapiens, 24 h; for IC50: CalcuSyn
Protocol: as §3, §4

HOSE cells [8] = test: ROS production (H2DCFDA), HOSE cells; type: cell-based, human; conditions: 24 h, percentage of control cells
Protocol: as §2

[9] = 10 μM, percentage of control cells
[10] = 50 μM, percentage of control cells
[11] = 100 μM, percentage of control cells
[12] = CalcuSyn, read-out: IC50, MTT assay

IC50 (A2780; [12]) | IC50 (OVCAR-3) | SMILES | 8-OH-dG (HOSE cells [1]; 10 μM) | 8-OH-dG (HOSE cells [1]; 50 μM) | 8-OH-dG (HOSE cells [1]; 100 μM) | concentration of 8-OH-dG (oxidative DNA damage), effect in words (A2780 cells [2]) | ROS (HPMCs; 10 μM) | ROS (HPMCs; 50 μM) | ROS (HPMCs; 100 μM) | p38 MAPK activity (phosphorylated/total), effect in words (p38 MAPK) | generation of ROS, effect in words (A2780 cells [3]) | generation of ROS, effect in words (OVCAR-3 cells [4]) | 8-OH-dG level after 24-h recovery in standard growth medium, in words [5] | SA-β-Gal activity (senescence), effect in words (OVCAR-3 cells [6]) | proliferation, effect in words (A2780 cells [7]) | CAT activity, effect in words (catalase (CAT)) | ROS (HOSE cells [8]; 10 μM) | ROS (HOSE cells [8]; 50 μM) | ROS (HOSE cells [8]; 100 μM) | further results
4 µM | 50 µM | Oc1ccc(/C=C/c2ccc(O)c(O)c2)cc1O [3,3′,4,4′-THS, 3,3′,4,4′-tetrahydroxy-trans-stilbene] | 103 ± 3% | 76 ± 3^∗# % | 71 ± 2^∗# % | only concentrations of 50 and 100 μM were effective | 104 ± 4% | 102 ± 3% | 82 ± 1^∗# % | elicited its stimulatory activity at 50 and 100 μM | markedly upregulated the generation of ROS | remarkably stronger | still markedly higher than in the unstimulated cells | significantly greater than those of RVT at each concentration | evident at as low a concentration as 10 μM | upregulated it in the OVCAR-3 cells at 10 μM, reduced it at 50 and 100 μM | 75 ± 4^∗# % | 72 ± 3^∗# % | 99 ± 4 % | viability at 10 µM (A2780; [9]): 20 ± 3%; viability at 50 µM (A2780; [10]): 14 ± 3%; viability at 100 µM (A2780; [11]): 13 ± 3%; IC50 (A2780; read-out: IC50 (range over MTT and LDH release assays)): 4 to 6 µM; viability at 10 µM (OVCAR-3; [9]): 75 ± 3%; viability at 50 µM (OVCAR-3; [10]): 50 ± 3%; viability at 100 µM (OVCAR-3; [11]): 48 ± 3%
48 µM | 480 µM | Oc1ccc(/C=C/c2cc(O)cc(O)c2)cc1 [RVT, 3,4′,5-trihydroxy-trans-stilbene, reference compound] | 103 ± 5% | 102 ± 5% | 82 ± 4^∗ % | induced DNA injury in A2780 and SKOV-3 at 50 and 100 μM | 108 ± 4^∗ % | 106 ± 11% | 105 ± 7% | increased the activity of p38 MAPK at 100 μM | (at 50 and 100 μM) inhibited the production of ROS | stimulated the release of ROS | returned to basal values within 24 h | cellular senescence was elicited | effectively reduced the expandability | stimulated the enzyme at 10 μM in the OVCAR-3 cells, at 50 μM in the A2780, OVCAR-3, and SKOV-3 cells, and at 100 μM in the OVCAR-3 and SKOV-3 cells | 103 ± 3% | 105 ± 4% | 121 ± 7^∗ % | –
